Test results reported in PubChem BioAssay AID330 (DTP/NCI, 2004).
Where “and” joins values, the source holds several entries; their conditions need not be identical. Identical values can stand only once. Inconclusive results and toxic doses are left out. Square brackets hold non-standard residues; d marks the D form. Peptide text beside a SMILES is read from it. ξ: configuration not given here. Ac5c = NC1(C(=O)O)CCCC1; ξS = NC(CO)C(=O)O

Test system: P388 leukemia ip, CD2F1 mice, survival T/C
Test: NCI In Vivo Anticancer Drug Screen. Data for tumor model P388 Leukemia (intraperitoneal) in CD2F1 (CDF1) mice
Settings: endpoint: median survival time, higher = longer survival
Summary of the method: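 Mice carrying the transplanted tumor received test compound or vehicle. Survival was recorded in each group, and the value is the treated-group measurement divided by that of the vehicle-treated control group.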

[1] = dose: 25.0 mg/kg/injection, schedule: Q01DX001 (ip), vehicle: saline with Tween-80
[2] = dose: 50.0 mg/kg/injection, schedule: Q01DX001 (ip), vehicle: saline with Tween-80
[3] = dose: 50.0 mg/kg/injection, schedule: Q01DX009 (ip), vehicle: saline
[4] = dose: 100.0 mg/kg/injection, schedule: Q01DX009 (ip), vehicle: saline
[5] = dose: 200.0 mg/kg/injection, schedule: Q01DX009 (ip), vehicle: saline
[6] = dose: 100.0 mg/kg/injection, schedule: Q04DX003 (ip), vehicle: saline with Tween-80
[7] = dose: 200.0 mg/kg/injection, schedule: Q04DX003 (ip), vehicle: saline with Tween-80
[8] = dose: 400.0 mg/kg/injection, schedule: Q04DX003 (ip), vehicle: saline with Tween-80
[9] = dose: 50.0 mg/kg/injection, schedule: Q01DX005 (ip), vehicle: saline with Tween-80
[10] = dose: 50.0 mg/kg/injection, schedule: Q01DX005 (ip), vehicle: saline
[11] = dose: 50.0 mg/kg/injection, schedule: Q01DX005 (ip), vehicle: Klucel (hydroxypropylcellulose) (HPC)
[12] = dose: 100.0 mg/kg/injection, schedule: Q01DX005 (ip), vehicle: Klucel (hydroxypropylcellulose) (HPC)
[13] = dose: 200.0 mg/kg/injection, schedule: Q01DX005 (ip), vehicle: Klucel (hydroxypropylcellulose) (HPC)
[14] = dose: 60.0 mg/kg/injection, schedule: Q01DX005 (ip), vehicle: Klucel (hydroxypropylcellulose) (HPC)
[15] = dose: 120.0 mg/kg/injection, schedule: Q01DX005 (ip), vehicle: Klucel (hydroxypropylcellulose) (HPC)
[16] = dose: 100.0 mg/kg/injection, schedule: Q01DX001 (ip), vehicle: saline with Tween-80
[17] = dose: 50.0 mg/kg/injection, schedule: Q01DX009 (ip), vehicle: saline with Tween-80
[18] = dose: 100.0 mg/kg/injection, schedule: Q01DX009 (ip), vehicle: saline with Tween-80
[19] = dose: 60.0 mg/kg/injection, schedule: Q01DX005 (ip), vehicle: saline with Tween-80
[20] = dose: 120.0 mg/kg/injection, schedule: Q01DX005 (ip), vehicle: saline with Tween-80
[21] = dose: 240.0 mg/kg/injection, schedule: Q01DX005 (ip), vehicle: saline with Tween-80

With `CCOC(=O)c1cc2c(cc1O)C1CC=C(C)[C@@H]3CCO[C@](OC)(C2)[C@]13C(=O)OC` (stereo partly drawn) the T/C (dose: 6.25 mg/kg/injection, schedule: Q01DX001 (ip), vehicle: saline with Tween-80) was 106 % of control, the T/C (dose: 12.5 mg/kg/injection, schedule: Q01DX001 (ip), vehicle: saline with Tween-80) was 101 % of control and the T/C [1] was 111 % of control. The T/C [2] was 100 % of control.
In the case of `COC(=O)CC(C(=O)OC)C(C(=O)OC)C(C(=O)OC)C(CC(=O)OC)C(=O)OC` (stereo not drawn), the T/C (dose: 100.0 mg/kg/injection, schedule: Q04DX002 (ip), vehicle: saline with Tween-80) is reported as 98 % of control, the T/C (dose: 200.0 mg/kg/injection, schedule: Q04DX002 (ip), vehicle: saline with Tween-80) is reported as 104 % of control and the T/C (dose: 400.0 mg/kg/injection, schedule: Q04DX002 (ip), vehicle: saline with Tween-80) is reported as 102 % of control.
With `COc1cc(/C=C/C(=O)N2CCN(CC(=O)N3CCCC3)CC2)cc(OC)c1OC` the T/C [3] was 100 % of control, the T/C [4] was 94 % of control and the T/C [5] was 95 % of control.
With `COc1ccc(NC(=O)C(c2ccccc2)c2ccccc2)cc1` the T/C [6] was 90 % of control, the T/C [7] was 95 % of control and the T/C [8] was 100 % of control.
For `O=C(O)Cc1ccc2c(c1O)C(=O)c1ccccc1C2=O`, the T/C (dose: 12.5 mg/kg/injection, schedule: Q01DX005 (ip), vehicle: saline) was 98 % of control, the T/C (dose: 25.0 mg/kg/injection, schedule: Q01DX005 (ip), vehicle: saline) was 104 % of control and the T/C [9] was 112 % of control. For the same compound, the T/C [10] was 107 % of control.
`Nc1nc(SCC(=O)O)[nH]c(=O)c1N` was tested, and the T/C [9] was 91 % of control, the T/C (dose: 100.0 mg/kg/injection, schedule: Q01DX005 (ip), vehicle: saline with Tween-80) was 104 % of control and the T/C (dose: 200.0 mg/kg/injection, schedule: Q01DX005 (ip), vehicle: saline with Tween-80) was 104 % of control.
In the case of `C/C(=C1/N=C(c2ccccc2)OC1=O)c1ccc(C)cc1`, the T/C [11] is reported as 106 % of control, the T/C [12] is reported as 90 % of control and the T/C [13] is reported as 106 % of control.
In the case of `C1CCC(N2CSC3CCCCC32)CC1` (stereo not drawn), the T/C [14] is reported as 95 % of control and the T/C [15] is reported as 97 % of control.
In the case of `CC1=C(C(=O)Nc2ccccc2)C(/C=C/c2ccccc2)C(C(=O)Nc2ccccc2)=C(C)N1`, the T/C [1] is reported as 92 % of control, the T/C [2] is reported as 89 % of control and the T/C [16] is reported as 96 % of control.
For `O=C1CCC(N2C(=O)C3CCCCC3C2=O)C(=O)O1` (stereo not drawn), the T/C (dose: 50.0 mg/kg/injection, schedule: Q01DX009 (ip), vehicle: Klucel (hydroxypropylcellulose) (HPC)) was 94 % of control, the T/C (dose: 100.0 mg/kg/injection, schedule: Q01DX009 (ip), vehicle: Klucel (hydroxypropylcellulose) (HPC)) was 108 % of control and the T/C (dose: 200.0 mg/kg/injection, schedule: Q01DX009 (ip), vehicle: Klucel (hydroxypropylcellulose) (HPC)) was 99 % of control.
With `CN(C)CC(CN(C)C)C(=O)/C=C/c1ccc(O)cc1` the T/C (dose: 1.56 mg/kg/injection, schedule: Q01DX005 (ip), vehicle: saline) was 105 % of control, the T/C (dose: 3.12 mg/kg/injection, schedule: Q01DX005 (ip), vehicle: saline) was 114 % of control and the T/C (dose: 6.25 mg/kg/injection, schedule: Q01DX005 (ip), vehicle: saline) was 114 % of control.
In the case of `CC(=O)C1=CN(C)c2ccccc2[S@@]1=O`, the T/C [11] is reported as 103 % of control, the T/C [12] is reported as 100 % of control and the T/C [13] is reported as 100 % of control.
For `CNCCN=c1ccc2c3c1c(O)c1c(O)ccc(=O)c1c3[nH]n2CCNCCO`, the T/C (dose: 1.56 mg/kg/injection, schedule: Q04DX002 (ip), vehicle: water) was 167 % of control and 186 % of control, the T/C (dose: 3.12 mg/kg/injection, schedule: Q04DX002 (ip), vehicle: water) was 177 % of control and 268 % of control and the T/C (dose: 6.25 mg/kg/injection, schedule: Q04DX002 (ip), vehicle: water) was 275 % of control and 277 % of control. For the same compound, the T/C (dose: 12.5 mg/kg/injection, schedule: Q04DX002 (ip), vehicle: water) was 275 % of control and 277 % of control and the T/C (dose: 25.0 mg/kg/injection, schedule: Q04DX002 (ip), vehicle: water) was 90 % of control.
For `CN(/N=C/c1ccc2c(c1)OCO2)c1ccc([N+](=O)[O-])cc1`, the T/C [11] was 89 % of control and the T/C [12] was 89 % of control.
With `CC(C)=NOC1CCCCC1OS(=O)(=O)c1ccc(C)cc1` (stereo not drawn) the T/C [17] was 94 % of control, the T/C [18] was 95 % of control and the T/C (dose: 200.0 mg/kg/injection, schedule: Q01DX009 (ip), vehicle: saline with Tween-80) was 110 % of control.
In the case of `Cc1nc2nc(N)nc(N)c2nc1Sc1ccc(Cl)cc1`, the T/C (dose: 25.0 mg/kg/injection, schedule: Q04DX003 (ip), vehicle: saline with Tween-80) is reported as 94 % of control and the T/C (dose: 50.0 mg/kg/injection, schedule: Q04DX003 (ip), vehicle: saline with Tween-80) is reported as 90 % of control.
With `Cc1cc(C)c2c(=O)n(-c3ccccc3C)c(=S)n(-c3ccccc3C)c2n1` the T/C [19] was 100 % of control and the T/C [20] was 86 % of control.
`NC(CO)C(=O)NC1(C(=O)O)CCCC1` (stereo not drawn) (H-[ξS]-[Ac5c]-OH) was tested, and the T/C [6] was 95 % of control, the T/C [7] was 100 % of control and the T/C [8] was 120 % of control.
`COC(=O)C1=C(C(=O)OC)P2(c3ccccc3)(c3ccccc3)N(C)C(=S)N2C1(c1ccccc1)c1ccccc1` was tested, and the T/C [11] was 103 % of control, the T/C [12] was 105 % of control and the T/C [13] was 90 % of control.
In the case of `N#Cc1cnn(-c2ccc([N+](=O)[O-])cc2[N+](=O)[O-])c1N`, the T/C [3] is reported as 101 % of control, the T/C [4] is reported as 100 % of control and the T/C [5] is reported as 108 % of control.
`COc1cccc(C2CC(C)(O)Oc3cc4c(cc32)OCO4)c1O` (stereo not drawn) was tested, and the T/C [14] was 100 % of control, the T/C [15] was 100 % of control and the T/C (dose: 240.0 mg/kg/injection, schedule: Q01DX005 (ip), vehicle: Klucel (hydroxypropylcellulose) (HPC)) was 92 % of control.
With `CC(=N\O)/C(C)=N/O.CC(=N\O)/C(C)=N/O.[Cl][Rh][Cl]` the T/C (dose: 200.0 mg/kg/injection, schedule: Q04DX003 (ip), vehicle: saline) was 100 % of control and the T/C (dose: 400.0 mg/kg/injection, schedule: Q04DX003 (ip), vehicle: saline) was 95 % of control.
For `CCCCCCCCCCC1(CCCC)C(=O)NC(=O)NC1=O`, the T/C (dose: 25.0 mg/kg/injection, schedule: Q01DX009 (ip), vehicle: saline with Tween-80) was 110 % of control, the T/C [17] was 108 % of control and the T/C [18] was 110 % of control.
In the case of `O=C(CNC(=O)c1ccccc1)Nc1ccccc1`, the T/C (dose: 25.0 mg/kg/injection, schedule: Q01DX009 (ip), vehicle: saline) is reported as 115 % of control, the T/C [3] is reported as 103 % of control and the T/C [4] is reported as 94 % of control. The T/C [5] was 104 % of control.
In the case of `CCOC(=O)NC(=O)CCC(=O)Nc1ccc2ccccc2c1`, the T/C [6] is reported as 97 % of control, the T/C [7] is reported as 95 % of control and the T/C [8] is reported as 96 % of control.
In the case of `O=c1[nH]c(=O)n(C2CC(O)C(CO)O2)cc1N1CCOCC1` (stereo not drawn), the T/C [10] is reported as 108 % of control, the T/C (dose: 100.0 mg/kg/injection, schedule: Q01DX005 (ip), vehicle: saline) is reported as 101 % of control and the T/C (dose: 200.0 mg/kg/injection, schedule: Q01DX005 (ip), vehicle: saline) is reported as 108 % of control.
In the case of `C#CC(C)(C)Oc1ccc2c(=O)c(-c3ccc(OC)c(OC)c3)coc2c1`, the T/C [19] is reported as 90 % of control, the T/C [20] is reported as 92 % of control and the T/C [21] is reported as 89 % of control.
`CC(=O)Oc1c(C)c(O)c(C(C)=O)c2c1C1(C)C(=O)C(C(C)=O)=C(O)C=C1O2` (stereo not drawn) was tested, and the T/C (dose: 6.25 mg/kg/injection, schedule: Q01DX009 (ip), vehicle: gum acacia) was 104 % of control and 107 % of control, the T/C (dose: 12.5 mg/kg/injection, schedule: Q01DX009 (ip), vehicle: gum acacia) was 101 % of control and 106 % of control and the T/C (dose: 25.0 mg/kg/injection, schedule: Q01DX009 (ip), vehicle: gum acacia) was 101 % of control and 110 % of control. The T/C (dose: 50.0 mg/kg/injection, schedule: Q01DX009 (ip), vehicle: gum acacia) was 100 % of control and 104 % of control, the T/C (dose: 100.0 mg/kg/injection, schedule: Q01DX009 (ip), vehicle: gum acacia) was 108 % of control and 110 % of control and the T/C (dose: 200.0 mg/kg/injection, schedule: Q01DX009 (ip), vehicle: gum acacia) was 113 % of control and 119 % of control.
In the case of `O=C(O)C1SCCCS1`, the T/C [19] is reported as 100 % of control, the T/C [20] is reported as 98 % of control and the T/C [21] is reported as 100 % of control.
For `O=C(Cc1ccccc1)NCCN1CCNCC1`, the T/C [16] was 105 % of control, the T/C (dose: 200.0 mg/kg/injection, schedule: Q01DX001 (ip), vehicle: saline with Tween-80) was 108 % of control and the T/C (dose: 400.0 mg/kg/injection, schedule: Q01DX001 (ip), vehicle: saline with Tween-80) was 96 % of control.
